Details: Liquid; for viscosity: Capillary tube (Ostwald / Ubbelohde) method; for mass density: Vibrating tube method

CCCCCCCCO [octan-1-ol]
Details | mass density [kg/m3] | viscosity [mPa·s]
298.15 K, 2000 kPa | 823.6 | 7.363
298.15 K, 4010 kPa | 824.8 | 7.542
298.15 K, 6000 kPa | 826 | 7.702
298.15 K, 8000 kPa | 827.2 | 7.865
298.15 K, 10000 kPa | 828.4 | 8.031
298.15 K, 13010 kPa | 830.1 | 8.3
298.15 K, 16010 kPa | 831.8 | 8.568
298.15 K, 18990 kPa | 833.4 | 8.825
298.15 K, 22010 kPa | 835 | 9.112
298.15 K, 25010 kPa | 836.6 | 9.397
298.15 K, 28010 kPa | 838.3 | 9.668
298.15 K, 30010 kPa | 839.3 | 9.866
303.15 K, 1990 kPa | 819.4 | 6.327
303.15 K, 3990 kPa | 820.6 | 6.481
303.15 K, 5980 kPa | 821.9 | 6.632
303.15 K, 10010 kPa | 824.4 | 6.941
303.15 K, 16020 kPa | 827.9 | 7.4
303.15 K, 19030 kPa | 829.7 | 7.63
303.15 K, 25000 kPa | 833 | 8.087
303.15 K, 29980 kPa | 835.6 | 8.468
303.16 K, 7980 kPa | 823.1 | 6.785
303.16 K, 13000 kPa | 826.2 | 7.169
303.16 K, 22010 kPa | 831.3 | 7.858
303.16 K, 28000 kPa | 834.6 | 8.316
313.15 K, 1970 kPa | 812.3 | 4.516
313.15 K, 4000 kPa | 813.6 | 4.627
313.15 K, 6010 kPa | 815 | 4.737
313.15 K, 8000 kPa | 816.3 | 4.846
313.15 K, 10010 kPa | 817.5 | 4.955
313.15 K, 13030 kPa | 819.4 | 5.12
313.15 K, 15980 kPa | 821.2 | 5.281
313.15 K, 18990 kPa | 823 | 5.446
313.15 K, 21990 kPa | 824.8 | 5.61
313.15 K, 25000 kPa | 826.5 | 5.774
313.15 K, 27980 kPa | 828.2 | 5.937
313.15 K, 29990 kPa | 829.3 | 6.047
323.15 K, 2010 kPa | 805.6 | 3.262
323.15 K, 4010 kPa | 807 | 3.348
323.15 K, 6010 kPa | 808.4 | 3.427
323.15 K, 8000 kPa | 809.7 | 3.499
323.15 K, 10010 kPa | 811.1 | 3.573
323.15 K, 13020 kPa | 813 | 3.688
323.15 K, 16020 kPa | 814.9 | 3.797
323.15 K, 19010 kPa | 816.8 | 3.91
323.15 K, 22000 kPa | 818.6 | 4.03
323.15 K, 25010 kPa | 820.4 | 4.149
323.15 K, 28010 kPa | 822.1 | 4.264
323.15 K, 30020 kPa | 823.3 | 4.343

CCCCO [butan-1-ol]
Details | mass density [kg/m3] | viscosity [mPa·s]
298.12 K, 2010 kPa | 806.8 | 2.608
298.12 K, 3910 kPa | 808.2 | 2.657
298.12 K, 6020 kPa | 809.8 | 2.708
298.12 K, 8030 kPa | 811.2 | 2.752
298.12 K, 9910 kPa | 812.5 | 2.797
298.12 K, 16020 kPa | 816.6 | 2.94
298.12 K, 19030 kPa | 818.5 | 3.018
298.12 K, 22000 kPa | 820.4 | 3.092
298.12 K, 25020 kPa | 822.3 | 3.166
298.12 K, 28000 kPa | 824 | 3.237
298.12 K, 30010 kPa | 825.1 | 3.287
298.13 K, 13010 kPa | 814.6 | 2.867
303.15 K, 2010 kPa | 803.3 | 2.351
303.15 K, 4000 kPa | 804.8 | 2.393
303.15 K, 5980 kPa | 806.3 | 2.436
303.15 K, 8010 kPa | 807.8 | 2.479
303.15 K, 9990 kPa | 809.2 | 2.522
303.15 K, 12990 kPa | 811.3 | 2.586
303.15 K, 15990 kPa | 813.3 | 2.65
303.15 K, 22010 kPa | 817.3 | 2.779
303.15 K, 25010 kPa | 819.1 | 2.843
303.15 K, 27970 kPa | 820.9 | 2.912
303.15 K, 29990 kPa | 822.1 | 2.957
303.16 K, 19000 kPa | 815.3 | 2.714
313.15 K, 10020 kPa | 801.8 | 1.969
313.15 K, 12980 kPa | 803.9 | 2.019
313.15 K, 22020 kPa | 810.2 | 2.182
313.15 K, 25010 kPa | 812.2 | 2.237
313.16 K, 1990 kPa | 795.5 | 1.832
313.16 K, 3980 kPa | 797.1 | 1.868
313.16 K, 5990 kPa | 798.7 | 1.902
313.16 K, 7980 kPa | 800.2 | 1.935
313.16 K, 15980 kPa | 806.1 | 2.073
313.16 K, 19010 kPa | 808.2 | 2.125
313.16 K, 27990 kPa | 814.1 | 2.292
313.16 K, 29990 kPa | 815.3 | 2.329
323.14 K, 2000 kPa | 787.9 | 1.421
323.14 K, 3920 kPa | 789.6 | 1.446
323.14 K, 6030 kPa | 791.3 | 1.473
323.14 K, 8000 kPa | 792.9 | 1.499
323.14 K, 10020 kPa | 794.5 | 1.525
323.14 K, 13040 kPa | 796.9 | 1.565
323.14 K, 16050 kPa | 799.2 | 1.603
323.14 K, 19000 kPa | 801.3 | 1.646
323.14 K, 21990 kPa | 803.4 | 1.684
323.14 K, 24970 kPa | 805.5 | 1.723
323.14 K, 28000 kPa | 807.5 | 1.759
323.14 K, 29970 kPa | 808.8 | 1.785

CCCCCCCO [heptan-1-ol]
Details | mass density [kg/m3] | viscosity [mPa·s]
298.15 K, 2000 kPa | 820.2 | 5.971
298.15 K, 4020 kPa | 821.4 | 6.1
298.15 K, 6010 kPa | 822.8 | 6.229
298.15 K, 8000 kPa | 824 | 6.364
298.15 K, 10000 kPa | 825.3 | 6.484
298.15 K, 13000 kPa | 827.1 | 6.686
298.15 K, 16000 kPa | 828.9 | 6.881
298.15 K, 19000 kPa | 830.7 | 7.084
298.15 K, 22000 kPa | 832.5 | 7.293
298.15 K, 25000 kPa | 834.2 | 7.516
298.15 K, 28000 kPa | 835.9 | 7.72
298.15 K, 29990 kPa | 836.9 | 7.864
303.16 K, 2030 kPa | 816.5 | 5.186
303.16 K, 4030 kPa | 817.9 | 5.302
303.16 K, 6040 kPa | 819.3 | 5.42
303.16 K, 7980 kPa | 820.5 | 5.534
303.16 K, 9990 kPa | 821.8 | 5.651
303.16 K, 12990 kPa | 823.6 | 5.826
303.16 K, 16020 kPa | 825.5 | 6.004
303.16 K, 19020 kPa | 827.3 | 6.179
303.16 K, 22000 kPa | 829.2 | 6.353
303.16 K, 24980 kPa | 830.9 | 6.527
303.16 K, 27980 kPa | 832.5 | 6.703
303.16 K, 30010 kPa | 833.7 | 6.822
313.15 K, 2000 kPa | 809.2 | 3.763
313.15 K, 4000 kPa | 810.6 | 3.848
313.15 K, 5980 kPa | 811.9 | 3.932
313.15 K, 7980 kPa | 813.3 | 4.017
313.15 K, 9970 kPa | 814.6 | 4.101
313.15 K, 13030 kPa | 816.5 | 4.231
313.15 K, 16020 kPa | 818.4 | 4.358
313.15 K, 19000 kPa | 820.4 | 4.484
313.15 K, 22020 kPa | 822.2 | 4.613
313.15 K, 25010 kPa | 824 | 4.739
313.15 K, 27980 kPa | 825.7 | 4.865
313.15 K, 30010 kPa | 826.9 | 4.952
323.15 K, 1990 kPa | 802.1 | 2.748
323.15 K, 4010 kPa | 803.4 | 2.812
323.15 K, 5990 kPa | 804.8 | 2.876
323.15 K, 8010 kPa | 806.2 | 2.94
323.15 K, 10010 kPa | 807.6 | 2.997
323.15 K, 13000 kPa | 809.7 | 3.088
323.15 K, 16000 kPa | 811.8 | 3.179
323.15 K, 18990 kPa | 813.7 | 3.266
323.15 K, 22000 kPa | 815.6 | 3.358
323.15 K, 25000 kPa | 817.4 | 3.451
323.15 K, 28000 kPa | 819.3 | 3.542
323.15 K, 30000 kPa | 820.5 | 3.607
